The structures appear in SMILES notation.

The assay deals with blood lymphocytes. Briefly: Zinc dose response: lymphocyte response to mitogen PHA in supplemented infants. The conditions noted are these: for Lymphocyte response to PHA (stimulation index): infants age 4-36 months. Format: in vivo, infants (human), age 4-36 months. Here is the method:
The basic concept underlying the assessment of the most optimum nutrient amounts for a given age group uses the principle of “dose-response graphs”. At least four groups of individuals were provided with various amounts of a given nutrient and their immune responses were measured using established and accepted techniques. The amount of a nutrient that gave the best response was considered the optimum amount. Dose response graphs were determined for all vitamins and trace elements considered essential for human health, particularly immunity.
Data for the dose response chart for zinc in a group of 4 to 36 month old infants is shown in FIG. 1, with the total amount of zinc taken is shown for each group. To determine the magnitude of immune response, an aliquot of blood was withdrawn from each subject in the study, blood lymphocytes were separated, washed and mixed with the mitogen phytohemagglutinin (PHA) in previously determined optimum amount. The optimum amount of PHA used in the experiments was predetermined by a set of dose response graphs using lymphocytes of a healthy donor and four different concentrations of PHA. After culture in a sterile environment for 72 hours, the cells were washed and mixed with radioactive thymidine. The same steps were undertaken in a control sample in which only the culture medium was used, not PHA. The cells were washed and radioactivity determined.
Dietary intake of zinc was calculated based on three 24-hour recalls and by the food frequency questionnaire methods.

For `[Zn]` [zinc], for the setting “3 mg zinc intake in addition to zinc from a balanced diet”, the “Immune response, conclusion in words” value is listed as “best immune response”. Besides, the “Lymphocyte response to PHA (stimulation index)” value is, setting by setting: (supplemental zinc 3 mg) 58; (supplemental zinc 6 mg) 41; (supplemental zinc 9 mg) 32.

These data come from patent US20050281888A1, “Nutritional supplement for infants” (priority 2004, published 2005).
